Numbers after ± are expanded uncertainties.
Compound: F/C=C/C(F)(F)F [trans-1,3,3,3-tetrafluoropropene]
- mass density (302.78 K, 433.9 kPa, Gas, isochoric method): 22.222 ± 0.12 kg/m3
- mass density (303.13 K, 802 kPa, Liquid, Vibrating tube method): 1145.9 ± 1.6 kg/m3
- mass density (303.13 K, 1676 kPa, Liquid, Vibrating tube method): 1151.1 ± 1.6 kg/m3
- mass density (303.13 K, 4747 kPa, Liquid, Vibrating tube method): 1167.3 ± 1.6 kg/m3
- mass density (303.13 K, 7769 kPa, Liquid, Vibrating tube method): 1181.3 ± 1.6 kg/m3
- mass density (303.13 K, 8772 kPa, Liquid, Vibrating tube method): 1185.8 ± 1.6 kg/m3
- mass density (303.14 K, 2678 kPa, Liquid, Vibrating tube method): 1156.8 ± 1.6 kg/m3
- mass density (303.14 K, 3716 kPa, Liquid, Vibrating tube method): 1162.3 ± 1.6 kg/m3
- mass density (303.14 K, 5757 kPa, Liquid, Vibrating tube method): 1172.2 ± 1.6 kg/m3
- mass density (303.14 K, 6764 kPa, Liquid, Vibrating tube method): 1176.9 ± 1.6 kg/m3
- mass density (303.14 K, 9773 kPa, Liquid, Vibrating tube method): 1190 ± 1.6 kg/m3
- mass density (303.14 K, 10775 kPa, Liquid, Vibrating tube method): 1194.1 ± 1.6 kg/m3
- mass density (303.14 K, 11778 kPa, Liquid, Vibrating tube method): 1197.9 ± 1.6 kg/m3
- mass density (303.14 K, 12794 kPa, Liquid, Vibrating tube method): 1201.7 ± 1.6 kg/m3
- mass density (303.14 K, 13809 kPa, Liquid, Vibrating tube method): 1205.3 ± 1.6 kg/m3
- mass density (303.14 K, 14819 kPa, Liquid, Vibrating tube method): 1209.1 ± 1.6 kg/m3
- mass density (303.14 K, 15824 kPa, Liquid, Vibrating tube method): 1212.5 ± 1.6 kg/m3
- mass density (303.14 K, 16838 kPa, Liquid, Vibrating tube method): 1216 ± 1.6 kg/m3
- mass density (303.14 K, 17845 kPa, Liquid, Vibrating tube method): 1219.4 ± 1.6 kg/m3
- mass density (303.14 K, 18856 kPa, Liquid, Vibrating tube method): 1222.6 ± 1.7 kg/m3
- mass density (303.14 K, 19875 kPa, Liquid, Vibrating tube method): 1225.8 ± 1.7 kg/m3
- mass density (303.14 K, 20888 kPa, Liquid, Vibrating tube method): 1228.8 ± 1.7 kg/m3
- mass density (303.14 K, 21899 kPa, Liquid, Vibrating tube method): 1232 ± 1.7 kg/m3
- mass density (303.14 K, 22909 kPa, Liquid, Vibrating tube method): 1234.9 ± 1.7 kg/m3
- mass density (303.14 K, 23916 kPa, Liquid, Vibrating tube method): 1238 ± 1.7 kg/m3
- mass density (303.14 K, 24920 kPa, Liquid, Vibrating tube method): 1240.8 ± 1.7 kg/m3
- mass density (303.14 K, 25928 kPa, Liquid, Vibrating tube method): 1243.5 ± 1.7 kg/m3
- mass density (303.14 K, 26942 kPa, Liquid, Vibrating tube method): 1246.4 ± 1.7 kg/m3
- mass density (303.14 K, 27943 kPa, Liquid, Vibrating tube method): 1249.1 ± 1.7 kg/m3
- mass density (303.14 K, 28955 kPa, Liquid, Vibrating tube method): 1251.6 ± 1.7 kg/m3
- mass density (303.14 K, 29958 kPa, Liquid, Vibrating tube method): 1254.5 ± 1.7 kg/m3
- mass density (303.14 K, 30966 kPa, Liquid, Vibrating tube method): 1256.7 ± 1.7 kg/m3
- mass density (303.15 K, 31972 kPa, Liquid, Vibrating tube method): 1259.5 ± 1.7 kg/m3
- mass density (303.15 K, 32984 kPa, Liquid, Vibrating tube method): 1262 ± 1.7 kg/m3
- mass density (303.15 K, 33993 kPa, Liquid, Vibrating tube method): 1264.4 ± 1.7 kg/m3
- mass density (312.59 K, 574.7 kPa, Gas, isochoric method): 28.571 ± 0.12 kg/m3
- mass density (312.6 K, 574.7 kPa, Gas, isochoric method): 28.571 ± 0.12 kg/m3
- mass density (312.61 K, 397.1 kPa, Gas, isochoric method): 19.231 ± 0.1 kg/m3
- mass density (312.61 K, 397.2 kPa, Gas, isochoric method): 19.231 ± 0.1 kg/m3
- mass density (312.72 K, 168.6 kPa, Gas, isochoric method): 7.634 ± 0.095 kg/m3
- mass density (312.76 K, 451.9 kPa, Gas, isochoric method): 21.739 ± 0.1 kg/m3
- mass density (312.76 K, 452 kPa, Gas, isochoric method): 21.739 ± 0.1 kg/m3
- mass density (312.8 K, 74.3 kPa, Gas, isochoric method): 3.311 ± 0.092 kg/m3
- mass density (312.84 K, 268.5 kPa, Gas, isochoric method): 12.5 ± 0.1 kg/m3
- mass density (313.13 K, 630.3 kPa, Gas, isochoric method): 32.258 ± 0.14 kg/m3
- mass density (313.13 K, 630.4 kPa, Gas, isochoric method): 32.258 ± 0.14 kg/m3
- mass density (313.14 K, 775 kPa, Liquid, Vibrating tube method): 1109.9 ± 1.7 kg/m3
- mass density (313.14 K, 1656 kPa, Liquid, Vibrating tube method): 1116.2 ± 1.6 kg/m3
- mass density (313.14 K, 2657 kPa, Liquid, Vibrating tube method): 1122.9 ± 1.6 kg/m3
- mass density (313.14 K, 3683 kPa, Liquid, Vibrating tube method): 1129.4 ± 1.6 kg/m3
- mass density (313.14 K, 5739 kPa, Liquid, Vibrating tube method): 1141.4 ± 1.6 kg/m3
- mass density (313.14 K, 6749 kPa, Liquid, Vibrating tube method): 1146.8 ± 1.6 kg/m3
- mass density (313.14 K, 7763 kPa, Liquid, Vibrating tube method): 1152.1 ± 1.6 kg/m3
- mass density (313.14 K, 8784 kPa, Liquid, Vibrating tube method): 1157.1 ± 1.6 kg/m3
- mass density (313.14 K, 9798 kPa, Liquid, Vibrating tube method): 1161.9 ± 1.6 kg/m3
- mass density (313.14 K, 10800 kPa, Liquid, Vibrating tube method): 1166.5 ± 1.6 kg/m3
- mass density (313.14 K, 11816 kPa, Liquid, Vibrating tube method): 1170.9 ± 1.6 kg/m3
- mass density (313.14 K, 12819 kPa, Liquid, Vibrating tube method): 1175.2 ± 1.6 kg/m3
- mass density (313.14 K, 13831 kPa, Liquid, Vibrating tube method): 1179.3 ± 1.6 kg/m3
- mass density (313.14 K, 14845 kPa, Liquid, Vibrating tube method): 1183.4 ± 1.6 kg/m3
- mass density (313.14 K, 15848 kPa, Liquid, Vibrating tube method): 1187.2 ± 1.6 kg/m3
- mass density (313.14 K, 16855 kPa, Liquid, Vibrating tube method): 1191.1 ± 1.6 kg/m3
- mass density (313.14 K, 18874 kPa, Liquid, Vibrating tube method): 1198.3 ± 1.6 kg/m3
- mass density (313.14 K, 19890 kPa, Liquid, Vibrating tube method): 1201.9 ± 1.6 kg/m3
- mass density (313.14 K, 20909 kPa, Liquid, Vibrating tube method): 1205.3 ± 1.6 kg/m3
- mass density (313.14 K, 21923 kPa, Liquid, Vibrating tube method): 1208.7 ± 1.7 kg/m3
- mass density (313.14 K, 22937 kPa, Liquid, Vibrating tube method): 1212 ± 1.7 kg/m3
- mass density (313.14 K, 23947 kPa, Liquid, Vibrating tube method): 1215.2 ± 1.7 kg/m3
- mass density (313.14 K, 25962 kPa, Liquid, Vibrating tube method): 1221.3 ± 1.7 kg/m3
- mass density (313.14 K, 26971 kPa, Liquid, Vibrating tube method): 1224.3 ± 1.7 kg/m3
- mass density (313.14 K, 28984 kPa, Liquid, Vibrating tube method): 1230.1 ± 1.7 kg/m3
- mass density (313.15 K, 4723 kPa, Liquid, Vibrating tube method): 1135.7 ± 1.6 kg/m3
- mass density (313.15 K, 17865 kPa, Liquid, Vibrating tube method): 1194.7 ± 1.6 kg/m3
- mass density (313.15 K, 24948 kPa, Liquid, Vibrating tube method): 1218.2 ± 1.7 kg/m3
- mass density (313.15 K, 27973 kPa, Liquid, Vibrating tube method): 1227.2 ± 1.7 kg/m3
- mass density (313.15 K, 30002 kPa, Liquid, Vibrating tube method): 1232.9 ± 1.7 kg/m3
- mass density (313.15 K, 31006 kPa, Liquid, Vibrating tube method): 1235.7 ± 1.7 kg/m3
- mass density (313.15 K, 32010 kPa, Liquid, Vibrating tube method): 1238.4 ± 1.7 kg/m3
- mass density (313.15 K, 33010 kPa, Liquid, Vibrating tube method): 1241 ± 1.7 kg/m3
- mass density (313.15 K, 34013 kPa, Liquid, Vibrating tube method): 1243.6 ± 1.7 kg/m3
- mass density (323.1 K, 76.8 kPa, Gas, isochoric method): 3.311 ± 0.089 kg/m3
- mass density (323.1 K, 278.4 kPa, Gas, isochoric method): 12.346 ± 0.098 kg/m3
- mass density (323.1 K, 470.5 kPa, Gas, isochoric method): 21.739 ± 0.1 kg/m3
- mass density (323.11 K, 174.6 kPa, Gas, isochoric method): 7.634 ± 0.09 kg/m3
- mass density (323.11 K, 413.3 kPa, Gas, isochoric method): 19.231 ± 0.099 kg/m3
- mass density (323.11 K, 413.4 kPa, Gas, isochoric method): 19.231 ± 0.099 kg/m3
- mass density (323.11 K, 658.4 kPa, Gas, isochoric method): 32.258 ± 0.12 kg/m3
- mass density (323.12 K, 836.8 kPa, Gas, isochoric method): 43.478 ± 0.15 kg/m3
- mass density (323.14 K, 1009 kPa, Liquid, Vibrating tube method): 1071.8 ± 1.7 kg/m3
- mass density (323.14 K, 1595 kPa, Liquid, Vibrating tube method): 1077.1 ± 1.7 kg/m3
- mass density (323.14 K, 2609 kPa, Liquid, Vibrating tube method): 1085.6 ± 1.7 kg/m3
- mass density (323.14 K, 3638 kPa, Liquid, Vibrating tube method): 1093.6 ± 1.6 kg/m3
- mass density (323.14 K, 4686 kPa, Liquid, Vibrating tube method): 1101.1 ± 1.6 kg/m3
- mass density (323.14 K, 5705 kPa, Liquid, Vibrating tube method): 1108 ± 1.6 kg/m3
- mass density (323.14 K, 6730 kPa, Liquid, Vibrating tube method): 1114.5 ± 1.6 kg/m3
- mass density (323.14 K, 7748 kPa, Liquid, Vibrating tube method): 1120.7 ± 1.6 kg/m3
